From ChEMBL document CHEMBL1145875, “Xylylated dimers of putrescine and polyamines: influence of the polyamine backbone on spermidine transport inhibition” (Bioorg Med Chem Lett, 2003)

Each molecule was assayed against T47D (assay: (§1) Inhibition of spermidine transport determined in T-47D human breast cancer cells).
Assay type: functional, cell-based
NCCCCCNCCCCCN was tested, and the Ki was 3.4 µM.
For NCCCCN(CCCCN)Cc1ccc(CN(CCCCN)CCCCN)cc1, the Ki was 2.8 µM.
Molecule NCCCNCCCN [NORSPERMIDINE] has a Ki of 9.5 µM.
With NCCCCCN(CCCCCN)Cc1ccc(CN(CCCCCN)CCCCCN)cc1 the Ki was 2.8 µM.
Work on NCCCCN [PUTRESCINE] yielded a Ki greater than 500 µM.
In the case of NCCCCCCNCCCCCCN, the Ki is reported as 20.9 µM.
In the case of NCCC(CN)OCc1ccc(COC(CN)CCN)cc1 (stereo not drawn), the Ki is reported as 12.8 µM.
Work on NCCCNCCCCNCCCN [SPERMINE] yielded a Ki of 2.1 µM.
NCCCCCCN(CCCCCCN)Cc1ccc(CN(CCCCCCN)CCCCCCN)cc1 gave a Ki of 9.4 µM.
Molecule NCCCNCCCCN(CCCN)Cc1ccc(CN(CCCN)CCCCNCCCN)cc1 has a Ki of 1.1 µM.
With NCCCCNCCCCN the Ki was 2.7 µM.
NCCC(CN)NCc1ccc(CNC(CN)CCN)cc1 (stereo not drawn) was tested, and the Ki was 9.3 µM.

What follows are molecules tested on T47D (assay: as §1).
Assay type: functional, cell-based
Work on NCCCCNCCCN yielded a Km of 4.4 µM.
